Measured values: patent US20060062842A1, “Method of administering a compound to multi-drug resistant cells” (Alza Corporation, priority 1998, published 2006)

Legend:
[1] = system: drug-sensitive (M109) cells; assay: Cell-associated doxorubicin after exposure; type: cell-based, murine; settings: 0.5×10^-6 M doxorubicin
Procedure: (§1) The doxorubicin was administered to the cells in free form and entrapped in folate-targeted liposomes. The cell-associated drug was measured after 1 hour and 4 hours of exposure to doxorubicin.

[2] = system: drug-resistance (M109R) cells; assay: Cell-associated doxorubicin after exposure; type: cell-based, murine; settings: Drug-Resistant Cells, 0.2×10^-5 M doxorubicin
Procedure: as §1

tumor cells = assay: Adoptive tumor growth assay, subcutaneous injection; type: in vivo, mice; settings: treated tumor cells injected subcutaneously (FIG. 16)
Text: FIG. 16 is a plot showing the number of palpable tumors after subcutaneous injection of untreated (control, open circles) or in vitro treated tumor cells with free doxorubicin (closed circles), doxorubicin entrapped in non-targeted liposomes (open squares) and doxorubicin entrapped in folate-targeted liposomes (closed triangles).

M109R-HiFR cells [3] = assay: Fluorescence tracking of doxorubicin in cells; type: cell-based, murine
Procedure: As described in Example 5, folate-targeted liposomes containing doxorubicin were prepared and incubated with M109R-HiFR cells. For comparison, M109R-HiFR cells were also incubated with free doxorubicin or with liposomes containing doxorubicin but with no folate targeting ligand.
In another study, the ability of the M109R-HiFR cells to retain doxorubicin after treatment for 1 hour with either free doxorubicin or with doxorubicin-loaded folate-targeted liposomes, followed by incubation in drug-free medium for 24 hours was examined.
M109 HIFR cells were plated, 24 hours prior to each study, on 24 mm cover slips inserted into 35 mm culture dishes. […]
Examination of the cells was done with inverted Zeiss confocal laser scanning microscope (LSM410) (Carl Zeiss, Jena, Germany). Maximum excitation was done by 543 nm line of the internal He-neon laser; fluorescence emission was observed above 570 nm with long-pass barrier filter LP-570) for rhodamine. For doxorubicin, maximum excitation was done by 488 nm line of internal Argon laser: fluorescence emission was observed above 515 nm with long pass barrier filter LP-515. […]
M109R-HiFr cells were incubated with free doxorubicin or with doxorubicin entrapped in folate-targeted liposomes at a doxorubicin concentration of 4×10^−5 M. The doxorubicin molecule was tracked using fluorescence.

M109R-HiFR cells [4] = assay: Verapamil blockade of efflux pump and doxorubicin delivery; settings: for Intracellular Doxorubicin Content: 0.5×10^-5 M doxorubicin, verapamil 10 μmol where named
M109R-HiFR cells [5] = assay: In vivo adoptive tumor growth assay, footpad; design: species or system BALB/c mice
Text: To examine the biological activity of drug delivered by the folate-pathway from folate-targeted liposomes in another model, M109R-HiFR cells in vitro were exposed to a test drug. These cells were inoculated into mice footpads. In this way, the growth of cells was tracked along a much longer time span than in in vitro experiments, and the influence of in vivo micro-environmental factors is brought into play. However, unlike therapeutic experiments, this type of in vivo adoptive assay is unaffected by pharmacokinetic and biodistribution factors which complicat the interpretation of results.
Accordingly, tumor cells in vitro were incubated with free doxorubicin or with liposome-entrapped, non-folate-targeted doxorubicin (DOXIL®) or with folate-targeted, liposome-entrapped doxorubicin in accord with the invention. As described in Example 9, the tumor cells were incubated in the presence of the selected formulation for 1 hour and then 1×10^6 cells were injected into the footpad of a mouse, each treatment formulation being injected into 8 mice.
At the end of the study on day 34 after injection of the treated tumor cells, the weight of each tumor-bearing mouse footpad was determined and […] to determine the tumor weight in each mouse footpad.
Female 10-week-old BALB/c mice were maintained in a specific pathogen-free facility. M109R-HiFR cells in in vitro suspension (10^7 cells/ml) were exposed to 10^−5M doxorubicin either as free drug, as liposome-entrapped (Doxil®), or as folate-targeted liposome-entrapped […], washed with PBS, and then resuspended at a concentration of 2×10^7 cells. Healthy, syngeneic BALB/c mice were injected into the right hind footpad with 50 μl (10^6 cells). The footpad thickness was measured with calipers once or twice a week for 5 weeks. After 35 days, mice were sacrificed, the final number of tumors recorded, and the control and tumor-inoculated footpads were sectioned at the ankle level and weighed. Tumor weight was estimated as the difference between the weight of the normal and tumor-bearing footpad. The statistical significance of differences in the final incidence of tumors per group was analyzed by contingency tables and the Fisher's exact test.

M109R cells = assay: Multidrug-resistance of M109R subline; type: cell-based, murine
Text: (i) Cell lines: M109, a murine lung carcinoma line of BALB/c mice (Marks, T. A. et al., Cancer Treat. Rep., 61:1459-1470 ([…])), and a subline of these cells, M109R displaying multidrug-resistance, (approximately 100 fold increased resistance to doxorubicin) were used in most of the studies. Both cell lines express in vitro low amounts of folic acid receptors and are therefore referred to as M109-LoFR and M109R-LoFR. By culturing these cells in folic acid-free medium for several passages, two sublines expressing a high amount of folic acid receptors were obtained. These sublines were adapted to grow under low folic acid conditions with generation doubling times similar to the lines of origin.

M109R-HiFR cells [6] = assay: Folic acid binding to cell lines
KB-HiFR cells = assay: Folic acid binding to cell lines; design: species or system human
Procedure: (§2) These cell lines and their capacity to bind folic acid were determine as set forth in Example 2B, by incubating the cells for 30 minutes with folic acid at 37° C.
(§3) Radioactivity was determined by liquid scintillation counting.

KB-LoFR cells = assay: Folic acid binding to cell lines; design: species or system human
Procedure: as §2, §3

M109R-LoFR cells = assay: Folic acid binding to cell lines; design: species or system murine; settings: incubation 30 min at 37° C.
Procedure: as §2, §3

M109-LoFR cells = assay: Folic acid binding to cell lines; design: species or system murine; settings: incubation 30 min at 37° C.
Procedure: as §2, §3

Human Melanoma line A375 = assay: Folic acid binding to cell lines; settings: 30 min at 37° C.
Procedure: as §2, §3

[7] = system: Murine Lung Carcinoma High Folate Receptor cells; assay: Folic acid binding to cell lines; settings: Murine Lung Carcinoma High Folate Receptor (printed M109R-HiFR); 30 min at 37° C.
Procedure: as §2, §3

Normal Human Fibroblasts = assay: Folic acid binding to cell lines; settings: NHF; 30 min at 37° C.
Procedure: as §2, §3

[8] = cells exposed in vitro to 10^-5 M doxorubicin, 5 weeks follow-up

Question: Which “Percent doxorubicin administered remaining in cells” value ([1]; exposure 1 hour) does the source give for `COc1cccc2c1C(=O)c1c(O)c3c(c(O)c1C2=O)C[C@@](O)(C(=O)CO)C[C@@H]3O[C@H]1C[C@H](N)[C@H](O)[C@H](C)O1` [Free Doxorubicin, doxorubicin] here?
Answer: 8.6%

Question: And the intracellular doxorubicin ([1]; exposure 1 hour)?
Answer: 25 ng/1.5 × 10^6 cells

Question: And the “Percent doxorubicin administered remaining in cells” value ([1]; exposure 4 hours)?
Answer: 12.4%

Question: And the intracellular doxorubicin ([1]; exposure 4 hours)?
Answer: 36.1 ng/1.5 × 10^6 cells

Question: What about the “Percent doxorubicin administered remaining in cells” value ([2]; exposure 1 hour) of the same molecule?
Answer: 5.5%

Question: And the intracellular doxorubicin ([2]; exposure 1 hour)?
Answer: 159 ng/1.5 × 10^6 cells

Question: What about the “Percent doxorubicin administered remaining in cells” value ([2]; exposure 4 hours) of the same molecule?
Answer: 4.2%

Question: And the intracellular doxorubicin ([2]; exposure 4 hours)?
Answer: 122 ng/1.5 × 10^6 cells

Question: What about the “number of palpable tumors” value (tumor cells) of the same molecule?
Answer: significant number of tumors

Question: And the “doxorubicin fluorescence retained in cells” value (M109R-HiFR cells [3]; 1 hour treatment, then 24 hours in drug-free medium (FIGS. 10C-10D))?
Answer: almost completely waned

Question: What about the “time at which drug is located in the nucleus” value (M109R-HiFR cells [3]; doxorubicin 4×10^-5 M (FIGS. 9B, 9E)) of the same molecule?
Answer: ≤ 30 min

Question: What about the “cell fluorescence by flow cytometry in presence of verapamil” value (M109R-HiFR cells [4]; FIGS. 11A-11B) of the same molecule?
Answer: clear increase of cell fluorescence

Question: And the “Intracellular Doxorubicin Content” value (M109R-HiFR cells [4]; exposure time 30 minutes)?
Answer: 24 ng/1.5 × 10^6 cells

Question: What about the “Intracellular Doxorubicin Content” value (M109R-HiFR cells [4]; exposure time 60 minutes) of the same molecule?
Answer: 42.5 ng/1.5 × 10^6 cells

Question: And the “cell retention of doxorubicin in presence versus absence of verapamil” value (M109R-HiFR cells [4]; verapamil 10 μmol)?
Answer: ~4.5 fold

Question: And the “Final Tumor Incidence (%)” value (M109R-HiFR cells [5]; [8])?
Answer: 42%

Question: What about the “Final Tumor Incidence (tumors/mice)” value (M109R-HiFR cells [5]; [8]) of the same molecule?
Answer: 8/19

Question: What about the “Median Tumor weight (range)” value (M109R-HiFR cells [5]; footpad tumor weight at end of study) of the same molecule?
Answer: 239 (32-683) mg

Question: And the footpad thickness (M109R-HiFR cells [5]; tumor cells treated in vitro, 10^6 cells injected into footpad (FIG. 15A))?
Answer: increase in footpad thickness

Question: What about the “increased resistance of M109R versus M109” value (M109R cells) of the same molecule?
Answer: approximately 100 fold

Question: How did the “FOLIC ACID BINDING” value (M109R-HiFR cells [6]; Multidrug-resistant High Folate Receptor M109R-HiFR, 30 min at 37° C.) turn out when `Nc1nc2ncc(CNc3ccc(C(=O)N[C@@H](CCC(=O)O)C(=O)O)cc3)nc2c(=O)[nH]1` [folic acid] was run?
Answer: 2179 ± 430 FENTOMOLES/10^4 CELLS

Question: And the “folic acid remaining bound following acid wash” value (M109R-HiFR cells [6]; acid wash pH 3, binding at ~1° C. for 30 min)?
Answer: 2±1%

Question: What about the “loss of folic acid receptors shown by binding assay with folic acid” value (M109R-HiFR cells [6]; monolayers pretreated with PI-PLC) of the same molecule?
Answer: 99%

Question: And the “cell-bound radiolabeled folic acid recovered after trypsinization” value (M109R-HiFR cells [6]; trypsin treatment)?
Answer: 91±11%

Question: What about the “difference in folic acid binding capacity” value (KB-HiFR cells; KB-HiFR (highest) compared with M109-LoFR (lowest)) of the same molecule?
Answer: up to 485 fold

Question: What about the “FOLIC ACID BINDING” value (KB-HiFR cells; KB-HiFR, 30 min at 37° C.) of the same molecule?
Answer: 9730 ± 79 FENTOMOLES/10^4 CELLS

Question: What about the “increase in folic acid binding” value (KB-LoFR cells; KB-LoFR after 24 hours in folic acid-depleted medium) of the same molecule?
Answer: 15 fold

Question: And the “FOLIC ACID BINDING” value (KB-LoFR cells; KB-LoFR after culture in folic acid-depleted medium for 24 h, 30 min at 37° C.)?
Answer: 6725 ± 323 FENTOMOLES/10^4 CELLS

Question: And the “FOLIC ACID BINDING” value (M109R-LoFR cells)?
Answer: 27 ± 10 FENTOMOLES/10^4 CELLS

Question: And the “FOLIC ACID BINDING” value (M109-LoFR cells; M109-LoFR after culture in folic acid-depleted medium for 24 h)?
Answer: 25 ± 13 FENTOMOLES/10^4 CELLS

Question: And the “FOLIC ACID BINDING” value (M109-LoFR cells; M109-LoFR)?
Answer: 20 ± 6 FENTOMOLES/10^4 CELLS

Question: What about the “FOLIC ACID BINDING” value (Human Melanoma line A375) of the same molecule?
Answer: 168 ± 33 FENTOMOLES/10^4 CELLS

Question: And the “FOLIC ACID BINDING” value [7]?
Answer: 678 ± 255 FENTOMOLES/10^4 CELLS

Question: What about the “FOLIC ACID BINDING” value (Normal Human Fibroblasts) of the same molecule?
Answer: 45 ± 3 FENTOMOLES/10^4 CELLS
